Experimental data: patent publication US20040171553A1, “Peptides fragments of colostrinin and their use” (priority 2000, published 2004)
Several values for one entry are separate records, joined by “and”; a condition that tells them apart may be missing. Identical values can stand only once.

How the values were obtained:
rabbits = assay: Serum antibody titre by ELISA after immunisation of rabbits with the KHL-conjugated synthetic peptide; assay type: in vivo, rabbit; details: ELISA against corresponding synthetic peptide antigen; for Titre: (Serum Dilution) Post Immunization R1: rabbit R1, after the 10 week immunisation protocol; for Titre: (Serum Dilution) Pre Immunization R1: rabbit R1, before immunisation
Description: To each N-terminal end of the synthetic peptides, L-cysteine was attached, and the peptide was formed into a ring so that the cysteine group lay between the N-terminal and the C-terminal ends of the synthetic peptide. This facilitated peptide conjugation with Keyhole Hemolymph (KHL).
For immunisation, two young adult rabbits (5-6 months old, weighing 5-6 lbs [2.3-2.7 kg]) were used. Each antigen (i.e., each synthetic peptide) was given subcutaneously and intramuscularly in 0.1 ml injections at ten different sites. The protocol used followed the following sequence:
The level of antibodies in the serum was established by ELISA (enzyme-linked immunosorbent assay) with the corresponding synthetic peptide antigen. This technique involved the following steps:
1. The antigen was diluted with a 0.1 M bicarbonate buffer (pH 9.0) to yield a 10 μg of antigen/ml solution. A volume of 50 μl of this solution was placed into each microwell of a 96 well plate.
2. The plates were covered and incubated at 37° C. for 3 hours.
3. The wells were washed with a coupling buffer and blocked using 200 μl of Pierce standard solution of BSA (bovine serum albumin).
4. 50 μl of dilutent BSA (0.75% soln.) was pipetted into each well. 50 μl of antibody serum sample diluted 1:100 in dilutent BSA were placed in lane A of each row.
5. 1:2 serial dilutions were performed moving down the plate.
6. The plates were covered and incubated at room temperature for 60 minutes.
7. The plates were washed four times with PBS wash solution.
8. A volume of 50 μl of goat anti-rabbit IgG (H&L) HRP conjugate at 1:1000 dilution in BSA was pipetted into each well and incubated at room temperature for 60 minutes (H&L=heavy and light chain; HRP=horseradish peroxidase).
9. The plates were washed four times with PBS wash solution.
10. A volume of 50 μl of substrate solution 2,2′-azino-bis(3-ethylbenzothiazoline-6-sulfonic acid)-diammonium salt (ABTS available from Pierce, which is used to help visualise the extent of the antibody/antigen reaction) was pipetted into each well and incubated at room temperature for about 2 minutes.
11. The reaction was stopped by adding 50 μl of 1% SDS (sodium dodecyl sulfate) into each well.
12. The wells were then read on a dynoplate reader at 405.
The data presented in Table 3 show the serum antibody titers against specific antibodies after the 10 week immunisation protocol.

[1] = test system: beta-amyloid precursor protein; assay: Ischemia-induced beta-amyloid precursor protein accumulation in rats, immunostaining with monoclonal antibodies; assay type: in vivo; set-up: Jonas C-terminal APP / Beringer- terminal APP / 511-608 APP ALZ 90 / Total: scale not given here; details: ischemic rats; for β-amyloid plaque level, overall result in words: summary of Table 4; for Jonas C-terminal APP: C-terminal end of precursor protein; for Total: sum of the three APP immunostaining levels
Description: Ischemia was induced in rats in order to encourage the development of the beta-amyloid precursor proteins. The rats were then subjected to a variety of treatment regimes, and the degree of the beta-amyloid precursor protein presence was investigated. The general technique is described in “Complete cerebral ischemia with short-term survival in rats induced by cardiac arrest. I. Extracellular accumulation of Alzheimer's β-amyloid protein precursor in the brain.”, Pluta, R. et al, Brain Research 649 (1994) 323-328.
The treatment regime varied in terms of the length of time ischemia was induced, and the length of time treatment was applied.
The Colostrinin was obtained by conventional techniques, as described, for example, in WO98/14473. The peptides were produced using the method described in Example 1. The control was not subjected to any treatment.
Each column represents the results if the immunostaining with specific monoclonal antibodies directed against fragments of amyloid or its N and C precursor protein.

[2] = β-amyloid plaque level, immunostaining

| Substance | Titre: (Serum Dilution) Post Immunization R1 (rabbits) | Titre: (Serum Dilution) Pre Immunization R1 (rabbits) | β-amyloid plaque level, overall result in words [1] | Beringer- terminal APP ([1]; β-amyloid plaque level, N-terminal end of precursor protein, immunostaining) | Jonas C-terminal APP [1, 2] | Total [1] | 511-608 APP ALZ 90 ([1]; β-amyloid plaque level, 511-608 position of precursor protein, immunostaining) |
| --- | --- | --- | --- | --- | --- | --- | --- |
| ESYVPLFP [Peptide 5] | 25600 | 0 | particularly good results | 2 and 4 |  |  |  |
| FLPVVN [Peptide 2] | 12800 | 0 |  |  |  |  |  |
| LLYQEPV [Peptide 6] | 25600 | 0 |  |  |  |  |  |
| LPLPLVRS [Peptide 10] | 25600 | 0 |  |  |  |  |  |
| PKLKVEVPEP [Peptide 4] | 25600 | 0 |  |  |  |  |  |
| PLPPTVMFPPQ [Peptide 8] | 25600 | 0 |  |  |  |  |  |
| PVLPVEPFPF [Peptide 3] | 12800 | 0 | particularly good results |  | 1 and 2 |  |  |
| PVVVPPFLQ [Peptide 9] | 25600 | 0 |  |  | 3 and 2 | 8 and 5 and 6 |  |
| QPKVLPVPQ [Peptide 7] | 25600 | 0 |  |  | 3 | 11 and 10 and 9 | 4 and 5 |
| QPLLQVMMEPQ [Peptide 1] | 12800 | 0 | particularly good results |  | 1 and 2 |  |  |
